Test system: 415267-285-R-J2-PDC complex spheroid viability
Experiment: Anticancer human tumor 415267-285-R-J2-PDC patient-derived breast carcinoma cell line growth inhibition [POLQ]
Details: for IC50: curve of first compound; for viability, T/C: stronger effect = lower value; active = viability on the fitted dose curve at most 10% of control; inactive = the rest
Experimental: Multicellular complex tumor spheroid response to Polymerase (POL) inhibitors (novobiocin, ART-558, RP6685) in combination with a variety of drugs and investigational agents in selected tumor cell lines
The POL inhibitors (novobiocin, ART-558, and RP6685) were evaluated both individually and in combination with standard of care and investigational anticancer small molecules within a complex spheroid model of solid tumors. . Complex spheroids include a stromal component modeled by human endothelial cells (HUVEC) and fibroblasts modeled by human mesenchymal stem cells (MSCs). The concentration ranges selected for each drug and investigational agent were based upon clinically achievable concentrations if the clinical Cmax of the agent was known.
Compounds. The drugs and investigational agents: novobiocin (NSC847541), ART-558 (NSC835418), RP-6685 (NSC848927), peposertib (NSC802822), ceralasertib (NSC780249), elimusertib (NSC800525), camonsertib (NSC841442), AZD-1390 (NSC803789), olaparib (NSC753686), talazoparib (NSC767125), rucaparib (NSC756644), sotorasib (NSC818433), MRTX-1133 (NSC836407), SN-38 (NSC673596), topotecan (NSC609699), epotoside (NSC141540), doxorubicin (NSC123127), gemcitabine (NSC613327), 5-fluorouracil (NSC19893), paclitaxel (NSC125973), vemurafenib (NSC761431), MSA-2 (NSC828583), SN-011 (NSC837082), adavosertib (NSC754352), prexasertib (NSC758257), carboplatin (NSC241240) and oxaliplatin (NSC266046), were obtained from the National Cancer Institute (NCI) Developmental Therapeutics Program Chemical Repository (21). The FDA-approved anticancer drug set is available from the Developmental Therapeutics Program at https://dtp.cancer.gov/organization/dscb/obtaining/. […] The stock solutions were prepared in dimethyl sulfoxide (DMSO, Sigma-Aldrich, St. Louis, MO, cat. D2650), except for the platinum compounds which were prepared in saline (Quality Biological, Gaithersburg, MD, cat. 114-055-101), at 800-fold the tested concentration and stored at -70 degrees C prior to their use. All drugs and investigational agents were tested over a range starting from a high concentration at or near the clinical Cmax and decreasing in half-log increments. If the clinical Cmax for an agent had not been determined, the highest concentration tested was 10 microM, except for SN-38, which was tested at a high concentration of 1 microM.
Cell Culture. All cells were maintained in an incubator at 37 degrees C and 5% CO2 with 95% humidity. The PDC lines were cultured according to standard operating procedures established by the NCI PDMR (https://pdmr.cancer.gov). Table 3 of the manuscript, lists the cell lines along with the number of the three cell types plated to form the mct-spheroids and media for tumor cell growth. After thawing, all PDC lines, except 997537-175-T-J1-PDC and 415267-285-R-J2-PDC, were cultured in Matrigel-coated flasks prepared with a working solution of 1X Ham's F-12 nutrient mix, without supplementation (Thermo Fisher Scientific, cat. 11765054), 100 U/mL penicillin-streptomycin (Thermo Fisher Scientific, cat. 15140122), and 2.5% Matrigel (Corning Inc., Corning, NY, cat. 354248) for the first three passages. The two PDC lines 997537-175-T-J1-PDC and 415267-285-R-J2-PDC were cultured on uncoated flasks. The 857933-349-R-J2-PDC line was cultured in 6C/Colon 1B media containing advanced DMEM/F-12 (Thermo Fisher Scientific, cat. 12634028), 10 mM HEPES (Thermo Fisher Scientific, cat. 15630080), 1X GlutaMAX supplement (Thermo Fisher Scientific, cat. 35050061), 0.1 mg/mL primocin (InvivoGen, San Diego, CA, cat. ant-pm-2), 10% defined fetal bovine serum, heat inactivated (HyClone Laboratories Inc., Logan, UT, cat. SH30070.03HI), 50% L-WRN conditioned media (ATCC, cat. CRL-3276), 1.25 mM N-Acetyl-L-cysteine (Sigma-Aldrich, cat. A9165), 10 mM nicotinamide (Sigma-Aldrich, cat. N0636), 1X B-27 supplement (Thermo Fisher Scientific, cat. 17504044), 1X N-2 supplement (Thermo Fisher Scientific, cat. […]
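Note: spheroids exposed to compounds for one week before readout.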
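Throughout, for viability, T/C: luminescence used as stand-in measure of viable cells.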

CNCc1ccc(-c2[nH]c3cc(F)cc4c3c2CCNC4=O)cc1 + Nc1ccc(C#CCN(C(=O)Cc2ncc(C(F)(F)F)cc2C(F)(F)F)c2ccc(F)cc2)nn1
> 10 µM: IC50 (second compound 0.0316 µM) | IC50 (second compound 0.1 µM) | IC50 (second compound 0.316 µM) | IC50 (second compound 1 µM) | IC50 (second compound 3.16 µM) | IC50 (second compound 10 µM)
inactive: viability, T/C (second compound 0.0316 µM, first compound 0.0316 µM) 98.9% | viability, T/C (second compound 0.0316 µM, first compound 0.1 µM) 107% | viability, T/C (second compound 0.0316 µM, first compound 0.316 µM) 91.1% | viability, T/C (second compound 0.0316 µM, first compound 1 µM) 84.6% | viability, T/C (second compound 0.0316 µM, first compound 3.16 µM) 91.9% | viability, T/C (second compound 0.0316 µM, first compound 10 µM) 103% | viability, T/C (second compound 0.1 µM, first compound 0.0316 µM) 89.7% | viability, T/C (second compound 0.1 µM, first compound 0.1 µM) 105% | viability, T/C (second compound 0.1 µM, first compound 0.316 µM) 93.2% | viability, T/C (second compound 0.1 µM, first compound 1 µM) 87.9% | viability, T/C (second compound 0.1 µM, first compound 3.16 µM) 101% | viability, T/C (second compound 0.1 µM, first compound 10 µM) 102% | viability, T/C (second compound 0.316 µM, first compound 0.0316 µM) 98.9% | viability, T/C (second compound 0.316 µM, first compound 0.1 µM) 93.2% | viability, T/C (second compound 0.316 µM, first compound 0.316 µM) 91.4% | viability, T/C (second compound 0.316 µM, first compound 1 µM) 106% | viability, T/C (second compound 0.316 µM, first compound 3.16 µM) 94.4% | viability, T/C (second compound 0.316 µM, first compound 10 µM) 108% | viability, T/C (second compound 1 µM, first compound 0.0316 µM) 97.3% | viability, T/C (second compound 1 µM, first compound 0.1 µM) 98.7% | viability, T/C (second compound 1 µM, first compound 0.316 µM) 92.9% | viability, T/C (second compound 1 µM, first compound 1 µM) 98.6% | viability, T/C (second compound 1 µM, first compound 3.16 µM) 106% | viability, T/C (second compound 1 µM, first compound 10 µM) 118% | viability, T/C (second compound 3.16 µM, first compound 0.0316 µM) 91.1% | viability, T/C (second compound 3.16 µM, first compound 0.1 µM) 100% | viability, T/C (second compound 3.16 µM, first compound 0.316 µM) 94% | viability, T/C (second compound 3.16 µM, first compound 1 µM) 96.5% | viability, T/C (second compound 3.16 µM, first compound 3.16 µM) 109% | viability, T/C (second compound 3.16 µM, first compound 10 µM) 107% | viability, T/C (second compound 10 µM, first compound 0.0316 µM) 101% | viability, T/C (second compound 10 µM, first compound 0.1 µM) 97.6% | viability, T/C (second compound 10 µM, first compound 0.316 µM) 105% | viability, T/C (second compound 10 µM, first compound 1 µM) 105% | viability, T/C (second compound 10 µM, first compound 3.16 µM) 113% | viability, T/C (second compound 10 µM, first compound 10 µM) 110%
